Reference: patent publication US8173131B2, “Compositions and methods for modulating RSV infection and immunity” (PerkinElmer Health Sciences, Inc., priority 2000, dated 2012)

What was measured:
[1] = system: bronchoalveolar leukocytes (BAL); test: BAL cell infiltration and cell types in RSV-infected mice following in vivo peptide treatment; parameters: species or system BALB/c mice; settings: in words; for total BAL numbers compared to mice treated with RT34, Δ−1 or PBS: day 3 pi; for course of BAL numbers: from day 3 to day 14 pi
Source text: Total pulmonary leukocyte trafficking following treatment of mice with peptides containing a CX3C motif (RT33 and EYp1) (A) or peptides without a CX3C motif (RT34, Δ+1, Δ−1)(B).
(§1) Flow cytometry results following treatment (d−1) of mice with PBS, RT33, RT34, Δ+1, Δ−1 and EYp1 peptides (100 μm). BAL cells were stained with antibodies against B220^+ (A, D, G), CD3^+ (B, E, H) and CD11b^+ (C, F, I) cells. Data is expressed as the total BAL cells/lung±SEM at days 3, 5, 7 and 14 post-infection. A representative experiment from 3 independent experiments is shown.
as §1, with “NK (DX5^+)” for “B220^+”, “(A, C, E) and PMN (RB6-8C5^+) cells (B,” for “(A,”, “F).” for “G), CD3^+ (B, E, H) and CD11b^+ (C, F, I) cells.”
On day −1, prior to RSV infection, mice were i.p. treated (0.1 ml/mouse) with 100 μM of G glycoprotein peptides RT33 (CWAIC) (SEQ ID NO: 12), RT34 (lacks the CX3C motif) or peptides with changes in the CX3C motif (Δ+1, Δ−1, EYp1). Control mice were treated with PBS containing a similar dilution of DMSO used to solubilize the peptides.
Mice were anesthetized with Avertin and exsanguinated by severing the right caudal artery. Bronchoalveolar leukocyte (BAL) cells were harvested by lung lavage with PBS containing 1% bovine serum albumin (BSA, Sigma). The procedure used for extracellular staining of BAL cells was modified for microculture staining as described (55,57). Briefly, BAL cells were washed in Dulbecco's PBS (GIBCO) containing 1% bovine serum albumin (Sigma), blocked with 10% normal mouse sera diluted in PBS containing 1% bovine serum albumin, and then stained (4° C., 30 min) with an appropriate dilution of FITC-conjugated or PE-conjugated anti-CD3ε (145-2C11), anti-CD45R/B220 (RA3-6B2), anti-CD8 (Ly-2), anti-neutrophil (PMN) (RB6-8C5), anti-CD11b (M1/70) and isotype antibody controls (all from Pharmingen, San Diego, Calif.).

[2] = system: human peripheral blood mononuclear cells; test: Human PBMC chemotaxis and CX3CR1 expression in modified Boyden chamber; assay type: cell-based; settings: for Chemotactic Indices / CX3CR1 Expression (%) Lower / CX3CR1 Expression (%) Upper: 6 h
Experimental: (§2) Leukocyte chemotaxis toward Fkn, G glycoprotein or media was measured according to Boyden^46 using 24 well plates (Costar, Cambridge, Mass.) with 3 μm filter inserts (Nalge Nunc, Rochester, N.Y.) coated with an extracellular matrix consisting primarily of laminin, collagen IV and proteoglycan (ECM, Sigma, St. Louis, Mo.). For murine studies, 5×10^5 naïve spleen cells was placed in the upper chamber and 10 nM mouse Fkn or 10 nM G glycoprotein, anti-CX3CR1 antibody, anti-G or anti-F glycoprotein monoclonal antibody, normal rabbit sera, rabbit anti-CCR5 sera or media was placed in the upper or lower chamber as appropriate. For human studies, 10^6 density gradient purified (Lymphocyte Separation Media, ICN Biomedicals, Aurora, Ohio, per manufacture instructions) peripheral blood mononuclear cells (PBMC) from normal human adult donors was placed in the upper chamber in the presence or absence of 1 μM peptide RT33, and 10 nM human Fkn, 10 nM G glycoprotein or 1 μM peptide RT33 placed in the lower chambers. The modified Boyden chamber was incubated at 37° C. for 4-6 h, the inserts removed, washed in PBS (GIBCO BRL), fixed in 3% gluteraldehyde and stained in formalin-buffered 0.01% crystal violet. Chemotactic cells were visualized with a microscope. Chemotactic cells were analyzed for CX3CR1 expression by collecting cells from the upper or lower modified Boyden chambers, antibody staining (2A9-1) and flow cytometry as described. Leucocytes chemotactic toward G or Fkn expressed a higher percent of CX3CR1 in the lower (25-30%) versus upper chamber (7-11%).
Leukocyte chemotaxis and percent positive CX3CR1 expression on human PBMC after a 6 h chemotaxis assay were determined. The percentage of cells positive for CX3CR1 in both upper and lower modified Boyden chambers are shown. Chemotactic indices were determined from the fold increase of leukocyte migration toward the chemoattractant, i.e. Fkn, G glycoprotein or peptide RT33, over the leukocyte migration toward media alone. TCM=tissue culture media.

[3] = system: murine spleen leukocyte cell migration; test: Murine leukocyte chemotaxis in modified Boyden chamber; assay type: cell-based, mouse
Experimental: The chemotactic index was determined from the fold increase of murine spleen leukocyte cell migration toward the chemoattractant (e.g., Fkn or G glycoprotein) over the leukocyte migration toward media alone control, using modified Boyden chambers. Fkn, G glycoprotein, recombinant polyhistidine-tagged G glycoprotein (GHIS), anti-CX3CR1 monoclonal antibody (2A9-1), normal rabbit serum, rabbit anti-CX3CR1 serum, anti-G glycoprotein monoclonal antibody (131-2G) or anti-F glycoprotein monoclonal antibody (131-2A) were added to the upper chamber to examine antagonism of cell migration toward the chemoattractant in the lower chamber.
as §2

[4] = TCM in upper chamber, substance in lower chamber (10 nM G or Fkn, 1 μM RT33)
[5] = TCM in upper chamber, substance in lower chamber
[6] = substance added to upper chamber as antagonist
[7] = 1 μM RT33 in upper chamber, Fkn in lower chamber
[8] = 1 μM RT33 in upper chamber, G glycoprotein in lower chamber

TCWAIACKRIPNK [Δ + 1]
total BAL numbers compared to mice treated with RT34, Δ−1 or PBS [1]: reduced BAL infiltrate
course of BAL numbers [1]: increased

Fkn: CX3C chemokine fractalkine (R&D), ligand of CX3CR1 [reference compound]
Chemotactic Indices [2, 4]: 3.2-3.7
CX3CR1 Expression (%) Lower [2, 5]: 26-30%
CX3CR1 Expression (%) Upper [2, 5]: 7-8%
chemotactic index toward G glycoprotein [3, 6]: 1.2
inhibition of leukocyte chemotaxis toward G glycoprotein ([3]; substance in upper chamber): approximately 75%

TCWAICKRIPNK [RT33]
CX3CR1 Expression (%) Lower [2, 7]: 6-14%
CX3CR1 Expression (%) Upper [2, 7]: 16-21%
Chemotactic Indices [2, 7]: 1.8-2.2
CX3CR1 Expression (%) Lower [2, 8]: 9-14%
CX3CR1 Expression (%) Upper [2, 8]: 16-18%
Chemotactic Indices [2, 8]: 1.5-2.0
Chemotactic Indices [2, 4]: 1.6-2.2
CX3CR1 Expression (%) Lower [2, 5]: 16-18%
CX3CR1 Expression (%) Upper [2, 5]: 11-16%
effect on chemotaxis toward G glycoprotein and Fkn ([2]; peptide added to upper Boyden chamber, in words): reduced chemotaxis toward both G glycoprotein and Fkn
total BAL numbers compared to mice treated with RT34, Δ−1 or PBS [1]: reduced BAL numbers
numbers of BAL cell types (B220+, CD3+, CD11b+, NK, PMN) ([1]; days 3, 5, 7 and 14 pi): reduced numbers of BAL cell types
course of BAL numbers [1]: declined

B1: G glycoprotein: purified G glycoprotein isolated from RSV/A2-infected Vero cells (protein)
chain: MSKNKDQRTAKTLERTWDTLNHLLFISSCLYKLNLKSVAQITLSILAMIISTSLIIAAIIFIASANHKVTPTTAIIQDATSQIKNTTPTYLTQNPQLGISPSNPSEITSQITTILASTTPGVKSTLQSTTVKTKNTTTTQTQPSKPTTKQRQNKPPSKPNNDFHFEVFNFVPCSICSNNPTCWAICKRIPNKKPGKKTTTKPTKKPTLKTTKKDPKPQTTKSKEVPTTKPTEEPTINTTKTNIITTLLTSNTTGNPELTSQMETFHSTSSEGNPSPSQVSTTSEYPSQPSSPPNTPRQ
Chemotactic Indices [2, 4]: 3.0-3.6
CX3CR1 Expression (%) Lower [2, 5]: 25-30%
CX3CR1 Expression (%) Upper [2, 5]: 8-11%
chemotactic index toward Fkn [3, 6]: 3.2
inhibition of leukocyte chemotaxis toward Fkn ([3]; substance in upper chamber): approximately 37%
